Results reported in the supplement of paper PMC6965134.
± gives the standard deviation of the averaged measurements. Blank lines part the entries; values can stand above or below the compound they belong to.

Assay: TIMS collisional cross section (CCS, N2) of the lipid ion; higher = larger ion cross section
Conditions: ionization mode: negative, one isomer drawn
Description: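 Lipid extracts of human plasma (NIST SRM 1950), mouse liver or HeLa cells were separated by nanoflow C18 LC (30 min gradient) and analysed by TIMS-PASEF on a timsTOF Pro. Ion mobility was calibrated with the Agilent tuning mix (negative mode ions) and converted to collisional cross sections (Mason–Schamp, N2).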
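Further: lipids from MTBE extraction, five replicate injections per sample, 100 ms TIMS ramp spanning 0.6–1.95 Vs/cm², lipid identity assigned from PASEF MS/MS spectra.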

TIMS collisional cross section (sample type: Human plasma, ion (formula + adduct): [C21H42NO7P-H] 1-): 208.4 Å²
TIMS collisional cross section (sample type: Mouse Liver, ion (formula + adduct): [C21H42NO7P-H] 1-): 208.4 Å²
SMILES: CCCCCC/C=C\CCCCCCCC(=O)OC[C@@H](O)COP(=O)(O)OCCN [LPE 16:1_0:0]

TIMS collisional cross section (sample type: Human plasma, ion (formula + adduct): [C23H48NO7P-CH3] 1-): 214.1 Å²
TIMS collisional cross section (sample type: Human plasma, ion (formula + adduct): [C23H48NO7P-H] 1-): 218.1 Å²
TIMS collisional cross section (sample type: Mouse Liver, ion (formula + adduct): [C23H48NO7P-H] 1-): 217.5 ± 0.6 Å²
SMILES: CCCCCCCCCCCCCCCCCC(=O)OC[C@@H](O)COP(=O)(O)OCCN [LPE 18:0_0:0]

TIMS collisional cross section (sample type: Human plasma, ion (formula + adduct): [C23H44NO7P-H] 1-): 212.88 ± 0.79 Å²
TIMS collisional cross section (sample type: Mouse Liver, ion (formula + adduct): [C23H44NO7P-H] 1-): 212.2 Å²
SMILES: CCCCC/C=C\C/C=C\CCCCCCCC(=O)OC[C@@H](O)COP(=O)(O)OCCN [LPE 18:2_0:0]

TIMS collisional cross section (sample type: Human plasma, ion (formula + adduct): [C23H42NO7P-H] 1-): 211.6 Å²
SMILES: CCCCC/C=C\C/C=C\C/C=C\CCCCC(=O)OC[C@@H](O)COP(=O)(O)OCCN [LPE 18:3_0:0]

TIMS collisional cross section (sample type: Human plasma, ion (formula + adduct): [C25H52NO7P-H] 1-): 224.9 Å²
TIMS collisional cross section (sample type: Mouse Liver, ion (formula + adduct): [C25H52NO7P-CH3] 1-): 220.9 Å²
SMILES: CCCCCCCCCCCCCCCCCCCC(=O)OC[C@@H](O)COP(=O)(O)OCCN [LPE 20:0_0:0]

TIMS collisional cross section (sample type: Mouse Liver, ion (formula + adduct): [C25H50NO7P-H] 1-): 222.6 Å²
SMILES: CCCCCCCC/C=C\CCCCCCCCCC(=O)OC[C@@H](O)COP(=O)(O)OCCN [LPE 20:1_0:0]

TIMS collisional cross section (sample type: Mouse Liver, ion (formula + adduct): [C25H46NO7P-H] 1-): 217.6 ± 0.42 Å²
SMILES: CCCCC/C=C\C/C=C\C/C=C\CCCCCCC(=O)OC[C@@H](O)COP(=O)(O)OCCN [LPE 20:3_0:0]

TIMS collisional cross section (sample type: Human plasma, ion (formula + adduct): [C25H42NO7P-H] 1-): 216.7 Å²
TIMS collisional cross section (sample type: Mouse Liver, ion (formula + adduct): [C25H42NO7P-H] 1-): 216.7 Å²
SMILES: CC/C=C\C/C=C\C/C=C\C/C=C\C/C=C\CCCC(=O)OC[C@@H](O)COP(=O)(O)OCCN [LPE 20:5_0:0]

TIMS collisional cross section (sample type: Human plasma, ion (formula + adduct): [C27H48NO7P-H] 1-): 223.5 Å²
TIMS collisional cross section (sample type: Mouse Liver, ion (formula + adduct): [C27H48NO7P-H] 1-): 222.9 Å²
SMILES: CCCCC/C=C\C/C=C\C/C=C\C/C=C\CCCCCC(=O)OC[C@@H](O)COP(=O)(O)OCCN [LPE 22:4_0:0]

TIMS collisional cross section (sample type: Human plasma, ion (formula + adduct): [C27H46NO7P-H] 1-): 222.18 ± 0.25 Å²
TIMS collisional cross section (sample type: Mouse Liver, ion (formula + adduct): [C27H46NO7P-H] 1-): 222.05 ± 0.35 Å²
SMILES: CCCCC/C=C\C/C=C\C/C=C\C/C=C\C/C=C\CCC(=O)OC[C@@H](O)COP(=O)(O)OCCN [LPE 22:5_0:0]

TIMS collisional cross section (sample type: Human plasma, ion (formula + adduct): [C27H44NO7P-H] 1-): 222.4 Å²
SMILES: CC/C=C\C/C=C\C/C=C\C/C=C\C/C=C\C/C=C\CCC(=O)OC[C@@H](O)COP(=O)(O)OCCN [LPE 22:6_0:0]

TIMS collisional cross section (sample type: Human plasma, ion (formula + adduct): [C23H48NO6P-H] 1-): 218.6 ± 2.1 Å²
SMILES: CCCCCCCC/C=C\CCCCCCCCOC[C@@H](O)COP(=O)(O)OCCN [LPE O- 18:1_0:0]

The next lines start with the compound.

SMILES: CCCCCCCCCCCCCCCCCC(=O)OC[C@@H](O)COP(=O)([O-])OCC[N+](C)(C)C [LPC 18:0_0:0]
TIMS collisional cross section (sample type: Human plasma, ion (formula + adduct): [C26H54NO7P+HCOO] 1-): 246.01 ± 2.8 Å²
TIMS collisional cross section (sample type: Human plasma, ion (formula + adduct): [C26H54NO7P-CH3] 1-): 225.5 Å²
TIMS collisional cross section (sample type: Mouse Liver, ion (formula + adduct): [C26H54NO7P+HCOO] 1-): 244.8 ± 0.42 Å²

SMILES: CC/C=C\C/C=C\C/C=C\CCCCCCCC(=O)OC[C@@H](O)COP(=O)([O-])OCC[N+](C)(C)C [LPC 18:3_0:0]
TIMS collisional cross section (sample type: Human plasma, ion (formula + adduct): [C26H48NO7P+HCOO] 1-): 238.3 ± 0.42 Å²
TIMS collisional cross section (sample type: Human plasma, ion (formula + adduct): [C26H48NO7P-CH3] 1-): 220.2 Å²

SMILES: CCCCCCCCCCCCCCCCCCCC(=O)OC[C@@H](O)COP(=O)([O-])OCC[N+](C)(C)C [LPC 20:0_0:0]
TIMS collisional cross section (sample type: Human plasma, ion (formula + adduct): [C28H58NO7P+HCOO] 1-): 253 Å²

SMILES: CCCCC/C=C\C/C=C\CCCCCCCCCC(=O)OC[C@@H](O)COP(=O)([O-])OCC[N+](C)(C)C [LPC 20:2_0:0]
TIMS collisional cross section (sample type: Human plasma, ion (formula + adduct): [C28H54NO7P+HCOO] 1-): 246.6 Å²
TIMS collisional cross section (sample type: Mouse Liver, ion (formula + adduct): [C28H54NO7P+HCOO] 1-): 245.7 ± 0.42 Å²

SMILES: CCCCC/C=C\C/C=C\C/C=C\CCCCCCC(=O)OC[C@@H](O)COP(=O)([O-])OCC[N+](C)(C)C [LPC 20:3_0:0]
TIMS collisional cross section (sample type: Human plasma, ion (formula + adduct): [C28H52NO7P+HCOO] 1-): 245.03 ± 0.87 Å²
TIMS collisional cross section (sample type: Human plasma, ion (formula + adduct): [C28H52NO7P-CH3] 1-): 225.9 Å²

SMILES: CCCCC/C=C\C/C=C\C/C=C\C/C=C\CCCC(=O)OC[C@@H](O)COP(=O)([O-])OCC[N+](C)(C)C [LPC 20:4_0:0]
TIMS collisional cross section (sample type: Human plasma, ion (formula + adduct): [C28H50NO7P+HCOO] 1-): 243.1 Å²
TIMS collisional cross section (sample type: Human plasma, ion (formula + adduct): [C28H50NO7P-CH3] 1-): 225.9 ± 0.85 Å²

SMILES: CC/C=C\C/C=C\C/C=C\C/C=C\C/C=C\CCCC(=O)OC[C@@H](O)COP(=O)([O-])OCC[N+](C)(C)C [LPC 20:5_0:0]
TIMS collisional cross section (sample type: Human plasma, ion (formula + adduct): [C28H48NO7P+HCOO] 1-): 242.5 Å²
TIMS collisional cross section (sample type: Human plasma, ion (formula + adduct): [C28H48NO7P-CH3] 1-): 224.7 Å²
TIMS collisional cross section (sample type: Mouse Liver, ion (formula + adduct): [C28H48NO7P+HCOO] 1-): 241.9 Å²

SMILES: CCCCCCCCCCCCCCCCCCCCCC(=O)OC[C@@H](O)COP(=O)([O-])OCC[N+](C)(C)C [LPC 22:0_0:0]
TIMS collisional cross section (sample type: Human plasma, ion (formula + adduct): [C30H62NO7P+HCOO] 1-): 258.6 Å²
TIMS collisional cross section (sample type: Mouse Liver, ion (formula + adduct): [C30H62NO7P+HCOO] 1-): 258.6 Å²

SMILES: CCCCC/C=C\C/C=C\CCCCCCCCCCCC(=O)OC[C@@H](O)COP(=O)([O-])OCC[N+](C)(C)C [LPC 22:2_0:0]
TIMS collisional cross section (sample type: Human plasma, ion (formula + adduct): [C30H58NO7P+HCOO] 1-): 254.2 Å²

SMILES: CCCCC/C=C\C/C=C\C/C=C\C/C=C\CCCCCC(=O)OC[C@@H](O)COP(=O)([O-])OCC[N+](C)(C)C [LPC 22:4_0:0]
TIMS collisional cross section (sample type: Human plasma, ion (formula + adduct): [C30H54NO7P+HCOO] 1-): 249 ± 0.42 Å²
TIMS collisional cross section (sample type: Human plasma, ion (formula + adduct): [C30H54NO7P-CH3] 1-): 231.5 Å²
TIMS collisional cross section (sample type: Mouse Liver, ion (formula + adduct): [C30H54NO7P+HCOO] 1-): 248.7 Å²

SMILES: CC/C=C\C/C=C\C/C=C\C/C=C\C/C=C\C/C=C\CCC(=O)OC[C@@H](O)COP(=O)([O-])OCC[N+](C)(C)C [LPC 22:6_0:0]
TIMS collisional cross section (sample type: Human plasma, ion (formula + adduct): [C30H50NO7P+HCOO] 1-): 246.7 ± 0.42 Å²
TIMS collisional cross section (sample type: Human plasma, ion (formula + adduct): [C30H50NO7P-CH3] 1-): 230.4 Å²
TIMS collisional cross section (sample type: Mouse Liver, ion (formula + adduct): [C30H50NO7P+HCOO] 1-): 247 Å²

SMILES: CCCCCCCCCCCCCCCCOCC(O)COP(=O)([O-])OCC[N+](C)(C)C (stereo not drawn) [LPC O- 16:0]
TIMS collisional cross section (sample type: Human plasma, ion (formula + adduct): [C24H52NO6P+HCOO] 1-): 236.6 Å²

SMILES: CCCCCCCCCCCCCCCCCCOCC(O)COP(=O)([O-])OCC[N+](C)(C)C (stereo not drawn) [LPC O- 18:0]
TIMS collisional cross section (sample type: Human plasma, ion (formula + adduct): [C26H56NO6P+HCOO] 1-): 243.4 Å²

SMILES: CCCCCC/C=C\CCCCCCCCCCOC[C@@H](O)COP(=O)([O-])OCC[N+](C)(C)C [LPC O- 18:1_0:0]
TIMS collisional cross section (sample type: Human plasma, ion (formula + adduct): [C26H54NO6P+HCOO] 1-): 244 Å²

SMILES: CCCCCCCCCCCCCCCC(=O)OC[C@@H](O)COP(=O)(O)OCCN [LPE 16:0_0:0]
TIMS collisional cross section (sample type: Human plasma, ion (formula + adduct): [C21H44NO7P-CH3] 1-): 207.4 Å²
TIMS collisional cross section (sample type: Human plasma, ion (formula + adduct): [C21H44NO7P-H] 1-): 214 ± 5.5 Å²
TIMS collisional cross section (sample type: Mouse Liver, ion (formula + adduct): [C21H44NO7P-H] 1-): 219.47 ± 10 Å²

SMILES: CCCCCCCC/C=C\CCCCCCCC(=O)OC[C@@H](O)COP(=O)(O)OCCN [LPE 18:1_0:0]
TIMS collisional cross section (sample type: Human plasma, ion (formula + adduct): [C23H46NO7P-H] 1-): 215.5 ± 1 Å²
TIMS collisional cross section (sample type: Mouse Liver, ion (formula + adduct): [C23H46NO7P-H] 1-): 215.2 ± 1 Å²

SMILES: CCCCC/C=C\C/C=C\C/C=C\C/C=C\CCCC(=O)OC[C@@H](O)COP(=O)(O)OCCN [LPE 20:4_0:0]
TIMS collisional cross section (sample type: Mouse Liver, ion (formula + adduct): [C25H44NO7P-H] 1-): 217.3 Å²
